The text below walks through data of patent publication US10117871B2, “3-hydroxypyrimidine-2,4-dione-5-carboxamides as potent inhibitors of HIV” (Regents of the University of Minnesota, priority 2015, dated 2018).

Read-outs that look alike come from different tables or passages of the source.

One data set has as its target T1, HIV-1 integrase (Human immunodeficiency virus type 1 group M subtype B, UniProt P04585).
T1 construct: HIV integrase was expressed and purified as previously reported; made in house; host or cells: Escherichia coli
As to the kind of experiment: HIV-1 integrase strand transfer (INST) assay. The format is biochemical. As for the experimental part:
HIV integrase was expressed and purified as previously reported.^43 Inhibition assays were performed using a modified protocol of a reported method.^43 Briefly, 2.1 μL of compound suspended in DMSO was placed in duplicate into a Black 96 well non-binding plate (coming 3991). Compounds were plated in duplicate to a final concentration of 0.13-100 μM. To each well of the plate 186.9 μL of reaction mixture without DNA substrate was added (10 mM HEPES pH 7.5, 10% glycerol w/v, 10 mM MnCl2, 1 mM DTT, 1 μM integrase). The enzyme was incubated with inhibitor for 10 min at 25° C. after which the reaction was initiated by the addition of 21 μL of 500 nM oligo (5′ biotin […] annealed with […] 3′ Cy5). Reactions were incubated at 37° C. for 30 min and then quenched by the addition of 5.2 μL 500 mM EDTA. Each reaction was moved (200 μL) to a MultiScreen HTS PCR plate (Millipore MSSLBPC10) containing 20 μL streptavidin agarose beads (Life Technologies S951) and incubated with shaking for 30 min. A vacuum manifold was used to remove the reaction mixture and the beads were similarly washed 3 times with wash buffer (0.05% SDS, 1 mM EDTA in PBS). The plates were further washed 3 times with 200 μL 50 mM NaOH to denature DNA not covalently linked to the biotin modification. For each denaturation step the plate was incubated with shaking at 25° C. for 5 min and the NaOH was removed by centrifugation at 1000 g for 1 min. The reaction products were eluted from the beads by the addition of 150 μL formamide. The plate was incubated at 25° C. for 10 min and read directly at 635/675 in a SpectraMax i3 plate reader (Molecular Devices). Expression and purification of the recombinant IN in Escherichia coli were performed as previously reported^39, 44 with addition of 10% glycerol to all buffers. Preparation of oligonucleotide substrates has been described.^45 Integrase reactions were performed in 10 μL with 400 nM of recombinant IN, 20 nM of 5′-end [^32P]-labeled oligonucleotide substrate and inhibitors at various concentrations. Solutions of 10% DMSO without inhibitors were used as controls. Reactions were incubated at 37° C. (60 minutes) in buffer containing 50 mM MOPS, pH 7.2, 7.5 mM MgCl2, and 14.3 mM 2-mercaptoethanol. Reactions were stopped by addition of 10 μL of loading dye (10 mM EDTA, 98% deionized formamide, 0.025% xylene cyanol and 0.025% bromophenol blue). Reactions were then subjected to electrophoresis in 20% polyacrylamide-7 M urea gels. Gels were dried and reaction products were visualized and quantitated with a Typhoon 8600 (GE Healthcare, Little Chalfont, Buckinghamshire, UK). Densitometric analyses were performed using ImageQuant from Molecular Dynamics Inc. The concentrations at which enzyme activity was reduced by 50% (IC50) were determined using “Prism” software (GraphPad Software, San Diego, Calif.) for nonlinear regression to fit dose-response data to logistic curve models.

The subject of another data set is CEM-SS cells. As to the kind of experiment: Compound cytotoxicity (MTS) in the HIV cytoprotection assay. It is filed as cell-based. The note with it: for Cell viability %: 10 μM, CEM-SS cells; for CC50: Concentration resulting in 50% cell death. As for the experimental part: (§1) The antiviral activity of newly synthesized analogues of chemotype 7 was evaluated against HIV-1IIIB in CEM-SS cells using an assay based on viral cytopathic effect (CPE). In this assay, the reduction of CPE was used to indicate the antiviral activity of a compound.
Briefly virus and cells were mixed in the presence of test compound and incubated for 6 days. […] Each assay plate contained cell control wells (cells only), virus control wells (cells plus virus), compound toxicity control wells (cells plus compound only), compound colorimetric control wells (compound only) as well as experimental wells (compound plus cells plus virus). […] Each assay included AZT as a positive control.

In another data set the test system is HIV-1IIIB. As to the kind of experiment: HIV-1 cytoprotection (CPE reduction) antiviral assay. It is filed as cell-based. The note with it: for inhibition at 10 µM: read-out: CPE reduction %; for antiviral activity, in words: single concentration 10 μM, CPE assay. As for the experimental part:
as §1
Briefly virus and cells were mixed in the presence of test compound and incubated for 6 days. […] Each assay plate contained cell control wells (cells only), virus control wells (cells plus virus), compound toxicity control wells (cells plus compound only), compound colorimetric control wells (compound only) as well as experimental wells (compound plus cells plus virus). Cytoprotection and compound cytotoxicity were assessed by MTS (CellTiter® 96 Reagent, Promega, Madison Wis.) and the EC50 (concentration inhibiting virus replication by 50%), CC50 (concentration resulting in 50% cell death) and a calculated TI (therapeutic index CC50/EC50) were provided. Each assay included AZT as a positive control.

The mark [1] stands for this setting: Human immunodeficiency virus 1, 10 μM, HIV-1IIIB in CEM-SS cells.
The mark [2] stands for this setting: Human immunodeficiency virus 1, CEM-SS.
The mark [3] stands for this setting: Human immunodeficiency virus 1, summary of Table 2, read-out: EC50.

Regarding `CCNc1[nH]c(=O)n(O)c(=O)c1C(=O)NCc1cccc(F)c1` [Compound 7-xv, N-(3-Fluorobenzyl)-1-(hydroxy)-4-(ethylamino)-1,2,3,6-tetrahydro-2,6-dioxopyrimidine-5-carboxamide], the 50% inhibitory concentration (IC50) on HIV-1 integrase (read-out: INST IC50) came out at 68 ± 7 nM. For the same compound, the Cell viability % with CEM-SS cells is recorded as 90%. The inhibition at 10 µM in the data set on HIV-1IIIB (setting [1]) was 100%.
`CCNc1[nH]c(=O)n(O)c(=O)c1C(=O)NCc1ccc(F)cc1` [Compound 7-xvi, N-(4-Fluorobenzyl)-1-(hydroxy)-4-(ethylamino)-1,2,3,6-tetrahydro-2,6-dioxopyrimidine-5-carboxamide]: the figures for the IC50 at HIV-1 integrase (read-out: IC50 (ST)) and at HIV-1 integrase (read-out: INST IC50) were 21 to 77 nM and 49 ± 4 nM, respectively. This compound also gave a Cell viability % in the data set on CEM-SS cells of 99%. Further, half-maximal cytotoxicity in the data set with CEM-SS cells (CC50) was put at 19000 nM. The concentration giving a half-maximal response (EC50) is 33 nM in the data set on HIV-1IIIB (Human immunodeficiency virus 1) and 15 to 61 nM in the data set on HIV-1IIIB (setting [3]). The inhibition at 10 µM in the data set with HIV-1IIIB (setting [2]) amounted to 100%.
In the case of `CCNc1[nH]c(=O)n(O)c(=O)c1C(=O)NCc1ccc(F)cc1F` [Compound 7-xviii, N-(2,4-Difluorobenzyl)-1-(hydroxy)-4-(ethylamino)-1,2,3,6-tetrahydro-2,6-dioxopyrimidine-5-carboxamide], the half-inhibitory concentration (IC50) on HIV-1 integrase (read-out: INST IC50) stood at 48 ± 7 nM. Moreover, the Cell viability % with CEM-SS cells is reported as 87%. Further, the inhibition at 10 µM in the data set on HIV-1IIIB (setting [1]) turned out to be 92%.
Regarding `CCNc1[nH]c(=O)n(O)c(=O)c1C(=O)NCc1ccc(F)c(F)c1` [Compound 7-xx, N-(3,4-Difluorobenzyl)-1-(hydroxy)-4-(ethylamino)-1,2,3,6-tetrahydro-2,6-dioxopyrimidine-5-carboxamide], the concentration for half-maximal inhibition (IC50) on HIV-1 integrase (read-out: IC50 (ST)) was 21 to 77 nM; at HIV-1 integrase (read-out: INST IC50), 77 ± 11 nM. Also, the Cell viability % in the data set with CEM-SS cells is recorded as 100%. This compound came in with a CC50 in the data set on CEM-SS cells of 21000 nM. Moreover, the EC50 with HIV-1IIIB (Human immunodeficiency virus 1) is 49 nM; in the data set on HIV-1IIIB (setting [3]), 15 to 61 nM. Besides, the inhibition at 10 µM with HIV-1IIIB (setting [2]) was 100%.
As to `CCNc1[nH]c(=O)n(O)c(=O)c1C(=O)NCc1cc(F)ccc1Cl` [Compound 7-xxi, N-(2-Chloro-5-fluorobenzyl)-1-(hydroxy)-4-(ethylamino)-1,2,3,6-tetrahydro-2,6-dioxopyrimidine-5-carboxamide], the IC50 on HIV-1 integrase (read-out: INST IC50) was determined as 95 ± 19 nM. The Cell viability % in the data set on CEM-SS cells was found to be 73%. Moreover, the inhibition at 10 µM in the data set with HIV-1IIIB (setting [1]) worked out at 62%.
Take `CCNc1[nH]c(=O)n(O)c(=O)c1C(=O)NCc1ccc(C)c(F)c1` [Compound 7-xxiv, N-(3-Fluoro-4-methylbenzyl)-1-(hydroxy)-4-(ethylamino)-1,2,3,6-tetrahydro-2,6-dioxopyrimidine-5-carboxamide]: the half-maximal inhibitory concentration (IC50) on HIV-1 integrase (read-out: INST IC50) is 51 ± 13 nM. In the data set with CEM-SS cells, the Cell viability % came out at 100% and half-maximal cytotoxicity (CC50) was put at 20000 nM. This compound also yielded a half-maximal effective concentration (EC50) in the data set on HIV-1IIIB (Human immunodeficiency virus 1) of 150 nM. Also, the inhibition at 10 µM in the data set with HIV-1IIIB (setting [1]) is 100%.
For the compound `CCNc1[nH]c(=O)n(O)c(=O)c1C(=O)Nc1ccccc1` [Compound 7-xxv, 1-(Hydroxy)-4-(ethylamino)-1,2,3,6-tetrahydro-2,6-dioxo-N-phenylpyrimidine-5-carboxamide], the concentration for half-maximal inhibition (IC50) on HIV-1 integrase (read-out: INST IC50) came out at 35000 ± 17000 nM. In addition, the Cell viability % in the data set on CEM-SS cells worked out at 27%. The inhibition at 10 µM with HIV-1IIIB (setting [1]) worked out at 11%. The “antiviral activity, in words” value with HIV-1IIIB is given as “complete loss of activity”.
In the case of `CCNc1[nH]c(=O)n(O)c(=O)c1C(=O)NCCc1ccccc1` [Compound 7-xxvi, 1-(Hydroxy)-4-(ethylamino)-1,2,3,6-tetrahydro-2,6-dioxo-N-phenethylpyrimidine-5-carboxamide], on HIV-1 integrase (read-out: INST IC50), the IC50 was found to be 100 ± 30 nM. The Cell viability % with CEM-SS cells is recorded as 87%. The inhibition at 10 µM in the data set on HIV-1IIIB (setting [1]) was determined as 99%. For the same compound, in the data set with HIV-1IIIB, the “antiviral activity, in words” value is on record as “largely retained”.
With `CCNc1[nH]c(=O)n(O)c(=O)c1C(=O)NCCCl` [Compound 7-xxvii, 1-(Hydroxy)-N-(2-chloroethyl)-4-(ethylamino)-1,2,3,6-tetrahydro-2,6-dioxopyrimidine-5-carboxamide], the “inhibition of ST in the ST assay, in words” value against HIV-1 integrase is given as “none”. In the data set with CEM-SS cells, this compound displayed a Cell viability % of 100%. Further, the inhibition at 10 µM in the data set with HIV-1IIIB (setting [2]) turned out to be 5.1%. The “antiviral activity, in words” value with HIV-1IIIB is listed as “completely abrogated antiviral activity”.
